The supplement of paper PMC10307832

Legend:
Assay in all cases: relative viability (nuclei count vs DMSO), 5 days (fraction); higher = more cells survive
NPK76-II-72-1 + AZD7762 = compound: CC1CC(=O)N(C2=CN=C(N=C2N1C3CCCC3)NC4=C(C=C(C=C4)C(=O)NC5CCN(CC5)C)OC)C [NPK76-II-72-1] + NC(=O)Nc1cc(-c2cccc(F)c2)sc1C(=O)N[C@H]1CCCNC1 [AZD7762] (partner 0.2 µM)
Method in brief: (§1)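 Five library-drug doses in √10 steps were combined with a fixed anchor-drug dose, or a single drug was given alone, by pin tool to lung cancer cell lines in 1536-well plates the day after seeding. Nuclei were stained and counted after 5 days. Relative viability is the nuclei count in treated wells over that in vehicle wells, taken as the median of duplicate plates.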

BI-2536 + Phenformin = compound: CC[C@@H]1C(=O)N(C)c2cnc(Nc3ccc(C(=O)NC4CCN(C)CC4)cc3OC)nc2N1C1CCCC1 [BI-2536] + N=C(N)NC(=N)NCCc1ccccc1 [Phenformin] (partner 250 µM)
Method in brief: as §1

[1] = compound: CC1CC(=O)N(C2=CN=C(N=C2N1C3CCCC3)NC4=C(C=C(C=C4)C(=O)NC5CCN(CC5)C)OC)C [NPK76-II-72-1] + Cc1cc(Nc2cc(N3CCN(C)CC3)nc(Sc3ccc(NC(=O)C4CC4)cc3)n2)n[nH]1 [Tozasertib] (partner 0.1 µM)
Method in brief: as §1

[2] = compound: CC1CC(=O)N(C2=CN=C(N=C2N1C3CCCC3)NC4=C(C=C(C=C4)C(=O)NC5CCN(CC5)C)OC)C [NPK76-II-72-1] + Nc1nc2[nH]cc(CCc3ccc(C(=O)N[C@@H](CCC(=O)O)C(=O)O)cc3)c2c(=O)[nH]1 [Pemetrexed] (partner 0.2 µM)
Method in brief: as §1

Cell Line | relative viability (NPK76-II-72-1 + AZD7762; first compound 0.01 µM) | relative viability (NPK76-II-72-1 + AZD7762; first compound 0.03162 µM) | relative viability (NPK76-II-72-1 + AZD7762; first compound 0.1 µM) | relative viability (NPK76-II-72-1 + AZD7762; first compound 0.3162 µM) | relative viability (NPK76-II-72-1 + AZD7762; first compound 1 µM) | relative viability (BI-2536 + Phenformin; first compound 0.01 µM) | relative viability (BI-2536 + Phenformin; first compound 0.03162 µM) | relative viability (BI-2536 + Phenformin; first compound 0.1 µM) | relative viability (BI-2536 + Phenformin; first compound 0.3162 µM) | relative viability (BI-2536 + Phenformin; first compound 1 µM) | relative viability ([1]; first compound 0.01 µM) | relative viability ([1]; first compound 0.03162 µM) | relative viability ([1]; first compound 0.1 µM) | relative viability ([1]; first compound 0.3162 µM) | relative viability ([1]; first compound 1 µM) | relative viability ([2]; first compound 0.01 µM) | relative viability ([2]; first compound 0.03162 µM) | relative viability ([2]; first compound 0.1 µM) | relative viability ([2]; first compound 0.3162 µM) | relative viability ([2]; first compound 1 µM)
NCI-H1437 | 1.14 | 1.15 | 1.1 | 1.04 | 1.17 | 0.289 | 0.23 | 0.145 | 0.143 | 0.154 | 0.393 | 0.469 | 0.391 | 0.361 | 0.422 | 0.319 | 0.305 | 0.307 | 0.305 | 0.352
NCI-H1651 | 0.436 | 0.449 | 0.471 | 0.377 | 0.501 | 0.296 | 0.197 | 0.136 | 0.104 | 0.102 | 0.632 | 0.919 | 0.661 | 0.388 | 0.759 | 0.534 | 0.61 | 0.611 | 0.527 | 0.6
NCI-H1666 | 0.84 | 0.861 | 0.852 | 0.752 | 1.01 | 0.564 | 0.576 | 0.435 | 0.313 | 0.341 | 0.668 | 0.674 | 0.525 | 0.546 | 0.666 | 0.844 | 0.802 | 0.88 | 0.78 | 0.917
NCI-H1734 | 0.531 | 0.557 | 0.676 | 0.532 | 0.667 | 0.393 | 0.24 | 0.159 | 0.151 | 0.167 | 0.29 | 0.271 | 0.28 | 0.261 | 0.287 | 0.428 | 0.402 | 0.413 | 0.418 | 0.416
NCI-H1755 | 0.356 | 0.468 | 0.431 | 0.464 | 0.436 | 0.603 | 0.578 | 0.328 | 0.237 | 0.253 | 0.669 | 0.663 | 0.526 | 0.552 | 0.653 | 0.385 | 0.405 | 0.464 | 0.544 | 0.405
NCI-H1793 |  | 0.69 | 0.618 | 0.238 | 0.566 | 0.369 | 0.197 | 0.149 | 0.138 | 0.139 | 0.34 | 0.377 | 0.36 | 0.263 | 0.369 |  | 1.05 | 0.92 | 0.806 | 0.981
NCI-H1915 | 0.709 | 0.751 | 0.665 | 0.647 | 0.726 | 0.351 | 0.328 | 0.12 | 0.0657 | 0.0862 | 0.479 | 0.455 | 0.47 | 0.418 | 0.482 | 0.459 | 0.527 | 0.452 | 0.475 | 0.533
NCI-H1944 | 0.456 | 0.509 | 0.779 | 0.572 | 0.595 | 0.206 | 0.243 | 0.122 | 0.0925 | 0.113 | 0.255 | 0.283 | 0.245 | 0.228 | 0.257 | 0.564 | 0.665 | 0.664 | 0.571 | 0.734
NCI-H1975 | 0.727 | 0.733 | 0.686 | 0.694 | 0.734 | 0.394 | 0.355 | 0.215 | 0.126 | 0.118 | 0.731 | 0.893 | 0.673 | 0.665 | 0.912 | 0.261 | 0.288 | 0.274 | 0.297 | 0.303
NCI-H1993 | 0.739 | 0.706 | 0.97 | 0.713 | 0.914 | 0.493 | 0.432 | 0.52 | 0.41 | 0.475 | 0.594 | 0.633 | 0.545 | 0.499 | 0.627 | 0.515 | 0.566 | 0.474 | 0.566 | 0.644
NCI-H2085 | 0.923 | 1.02 | 0.891 | 1 | 1.16 | 0.785 | 0.69 | 0.307 | 0.183 | 0.243 | 0.802 | 0.79 | 0.812 | 0.825 | 0.855 | 0.855 | 0.946 | 0.972 | 0.915 | 0.974
NCI-H2087 | 1.06 | 1.32 | 1.26 | 1.28 | 1.32 | 0.477 | 0.503 | 0.173 | 0.0945 | 0.102 | 0.284 | 0.203 | 0.272 | 0.254 | 0.249 | 0.66 | 0.653 | 0.588 | 0.661 | 0.63
NCI-H2126 | 0.95 | 1.07 | 0.99 | 0.989 | 1.01 | 0.5 | 0.495 | 0.231 | 0.279 | 0.247 | 0.8 | 0.812 | 0.855 | 0.783 | 0.888 | 0.678 | 0.809 | 0.617 | 0.672 | 0.736
NCI-H2170 | 0.799 | 0.891 | 0.892 | 0.358 | 0.975 | 0.435 | 0.413 | 0.34 | 0.167 | 0.202 | 0.688 | 0.708 | 0.69 | 0.527 | 0.812 | 0.407 | 0.26 | 0.269 | 0.245 | 0.283
NCI-H2342 | 0.501 | 0.435 | 0.673 | 0.328 | 0.462 | 0.547 | 0.586 | 0.649 | 0.283 | 0.341 | 0.621 | 0.467 | 0.498 | 0.437 | 0.537 | 0.74 | 0.755 | 0.812 | 0.584 | 0.772
NCI-H2347 | 0.805 | 0.755 | 0.646 | 0.704 | 0.883 |  | 0.28 | 0.382 | 0.276 | 0.211 | 0.405 | 0.542 | 0.507 | 0.589 | 0.638 | 0.502 | 0.42 | 0.417 | 0.403 | 0.354
